The values that follow come from patent publication EP1144368B1, “ACETYLENIC ALPHA-AMINO ACID-BASED SULFONAMIDE HYDROXAMIC ACID TACE INHIBITORS” (priority 1999, dated 2000).

The structures appear in SMILES notation. Counter-ions that a name gives are not always drawn. Like-named read-outs stand apart in the source and are kept apart here.

In the test the test system is THP-1 cells. The test can be described thus: THP-1 Soluble Protein Assay (LPS-stimulated; ELISA of TNF-a, TNF-R p75/80, TNF-R p55/60, IL-8). Type of test: cell-based, human. Particulars: Homo sapiens. (An ELISA detects its analyte on a solid surface through an enzyme-linked reagent.)
[1] abbreviates: THP-1, read-out: THP % inhibition @ 3 µM, 3 µM.
Where [2] appears, read: THP-1, 3 µM, read-out: THP % Inhibition @ 3µM.

Procedure: Each vial of cells are cultured for about two weeks prior to being used for an assay and then are used for only 4 to 6 weeks to screen compounds.
Plates are placed into an incubator set at 5% CO2 and at 37° C. After 4 hours of incubation, 300 ml/well of tissue culture supernatant (TCS) is removed for use in an TNF-a ELISA.
Percent change in each soluble protein evaluated from the "vehicle positive control" was calculated for each compound concentration with the following formula: % Change =(pg/ml (compound) - pg/ml (veh pos control))/(pg/ml (veh pos control) - pg/ml (veh neg control))x 100 [formula]
For the soluble protein (TNF-a, p75/80, p55/60, IL-8) studies under stimulated conditions, the mean pg/ml of duplicate wells were determined and the results expressed as percent change from "vehicle positive control".

Take `CC#CCOc1ccc(S(=O)(=O)N(CC#CCNC)C(C(=O)NO)C(C)C)cc1` (stereo not shown) [Example 127, 2-{{[4-(2-Butynyloxy)phenyl]sulfonyl}[4-(methylamino)-2-butynyl]amino}-N-hydroxy-3-methylbutanamide]: the inhibition at 3 µM under setting [1] is 83%.
With `CC#CCOc1ccc(S(=O)(=O)N(C)C2(C(=O)NO)CCCCC2)cc1` [Example 136, 1-[{[4-(2-Butynyloxy)phenyl]sulfonyl}(methyl)amino] -N-hydroxycyclohexanecarboxamide], the inhibition at 3 µM under setting [1] is 0%.
For the molecule `CC#CCOc1ccc(S(=O)(=O)N(C)C(C(=O)NO)c2ccc(OCCCN)cc2)cc1` (stereo not shown) [Example 188, 2-[4-(3-Aminopropoxy)phenyl]-2-[{[4-(2-butynyloxy)phenyl]sulfonyl}(methyl)amino]-N-hydroxyacetamide], under setting [1], the inhibition at 3 µM was found to be 94%.
For `CC#CCOc1ccc(S(=O)(=O)N(Cc2cccnc2)C(CSCc2ccccc2)C(=O)NO)cc1` (stereo not shown) [Example 157, 3-(Benzylthio)-2-[[[4-(2-butynyloxy)phenyl]sulfonyl]pyridin-3-ylmethylamino]-N-hydroxypropanamide], under setting [1], the inhibition at 3 µM came out at 79%.
In the case of `CC#CCOc1ccc(S(=O)(=O)N2CCN(Cc3ccc(Br)cc3)CC2C(=O)NO)cc1` (stereo not shown) [Example 233, 4-(4-Bromo-benzyl)-1-(4-but-2-ynyloxy-benzenesulfonyl)-piperazine-2-carboxylic acid hydroxyamide], the inhibition at 3 µM under setting [1] is 33%.
As to `CC#CCOc1ccc(S(=O)(=O)N2CCNCC2C(=O)NO)cc1` (stereo not shown) [Example 214, 1-(4-But-2-ynyloxy-benzenesulfonyl)-piperazine-2-carboxylic acidhydroxyamide], under setting [1], the inhibition at 3 µM was found to be 71%.
For `CC#CCOc1ccc(S(=O)(=O)N(C)C(CCCSc2ccc(Cl)cc2)C(=O)NO)cc1` (stereo not shown) [Example 213, 2-[{[4-(2-Butynyloxy)phenyl]sulfonyl}(methyl)amino]-5-[(4-chlorophenyl)sulfanyl]-N-hydroxypentanamide], the inhibition at 3 µM under setting [1] was determined as 87%.
Take `CCC#CCOc1ccc(S(=O)(=O)N2CCSC(C)(C)[C@@H]2C(=O)NO)cc1` [Example 259, (3S)-N-Hydroxy-2,2-dimethyl-4-{[4-(2-pentynyloxy)phenyl]sulfonyl}-3-thiomorpholine carboxamide]: the inhibition at 3 µM under setting [1] came out at 92%.
The same measure, in the same setting: the result for `CCCCC#CCOc1ccc(S(=O)(=O)N2CCSC(C)(C)C2C(=O)NO)cc1` (stereo not shown) [Example 40, 4-(4-Hept-2-ynyloxy-benzenesulfonyl)-2,2-dimethyl-thiomorpholine-3-carboxylic acid hydroxyamide] reads 82%.
In the case of `CC#CCOc1ccc(S(=O)(=O)N2C[C@H](CC(=O)N3CCN(C)CC3)SC(C)(C)[C@@H]2C(=O)NO)cc1` [Example 283, (3S,6S)-4-{[4-(2-Butynyloxy)phenyl]sulfonyl}-N-hydroxy-2,2-dimethyl-6-[2-(4-methyl-1-piperazinyl)-2-oxoethyl]-3-thiomorpholinecarboxamide hydrochloride], under setting [2], the inhibition at 3 µM was 90%.
For `CC#CCOc1ccc(S(=O)(=O)N2CCN(C(=O)CC)CC2C(=O)NO)cc1` (stereo not shown) [Example 225, 1-(4-But-2-ynyloxy-benzenesulfonyl)-4-propionyl-piperazine-2-carboxylic acid hydroxyamide], the inhibition at 3 µM under setting [1] was determined as 76%.
The same measure, in the same setting: the result for `CC#CCOc1ccc(S(=O)(=O)N2CCS(=O)(=O)C(C)(C)[C@@H]2C(=O)NO)cc1` [Example 257, (3S)-4-{[4-(2-Butynyloxy)phenyl]sulfonyl}-N-hydroxy-2,2-dimethyl-3-thiomorpholine carboxamide 1,1-dioxide] reads 91%.
On to `CC#CCOc1ccc(S(=O)(=O)N(CCCN2CCN(C)CC2)C(C(=O)NO)C(C)C)cc1` (stereo not shown) [Example 120, 2-{{[4-(2-Butynyloxy)phenyl]sulfonyl}[3-(4-methyl-1-piperazinyl)propyl]amino}-N-hydroxy-3-methylbutanamide hydrochloride], for which the inhibition at 3 µM under setting [1] amounted to 61%.
Same read-out and setting: the same measure for `CC1(C)SCCN(S(=O)(=O)c2ccc(OCC#CC#CCO)cc2)[C@H]1C(=O)NO` [Example 262, (3S)-N-Hydroxy-4-({4-[(6-hydroxy-2,4-hexadiynyl)oxy]phenyl}sulfonyl)-2,2-dimethyl-3-thiomorpholine carboxamide]: 81%; for `CC#CCOc1ccc(S(=O)(=O)NC(C(=O)NO)c2ccc(OCCc3scnc3C)cc2)cc1` (stereo not shown) [Example 208, 2-({[4-(2-Butynyloxy)phenyl]sulfonyl}amino)-N-hydroxy-2-{4-[2-(4-methyl-1,3-thiazol-5-yl)ethoxy]phenyl}acetamide]: 74%.
Regarding `CC#CCOc1ccc(S(=O)(=O)N(C)[C@@H](C(=O)NO)c2ccc(O[C@H]3CCN(C(=O)OC(C)(C)C)C3)cc2)cc1` [Example 189, tert-Butyl (3S)-3-{4-[(1R)-1-[{[4-(2-butynyloxy)phenyl]sulfonyl}(methyl)amino]-2-(hydroxyamino)-2-oxoethyl]phenoxy}-1-pyrrolidinecarboxylate], the inhibition at 3 µM under setting [1] came out at 92%.
With `CC#CCOc1ccc(S(=O)(=O)NC(C(=O)NO)c2ccc(O)cc2)cc1` (stereo not shown) [Example 176, 2-({[4-(2-Butynyloxy)phenyl]sulfonyl}amino)-N-hydroxy-2-(4-hydroxyphenyl)acetamide], the inhibition at 3 µM under setting [1] was 89%.
The same measure, in the same setting: the result for `CC1(C)SCCN(S(=O)(=O)c2ccc(OCC#CCOCc3ccccc3)cc2)C1C(=O)NO` (stereo not shown) [Example 247, 4-[(4-{[4-(Benzyloxy)-2-butynyl]oxy}phenyl)sulfonyl]-N-hydroxy-2,2-dimethyl-3-thiomorpholine carboxamide] reads 57%; that for `CC#CCOc1ccc(S(=O)(=O)N2CCN(C(=O)Nc3ccc(OC)cc3)CC2C(=O)NO)cc1` (stereo not shown) [Example 221, 4-{[4-(2-Butynyloxy)phenyl]sulfonyl}-N-3-hydroxy-N-1-(4-methoxyphenyl)-1,3-piperazinedicarboxamide], 58%; that for `CC#CCOc1ccc(S(=O)(=O)NC(C(=O)NO)c2ccc(OCCN3CCOCC3)cc2)cc1` (stereo not shown) [Example 206, 2-({[4-(2-Butynyloxy)phenyl]sulfonyl}amino)-N-hydroxy-2-{4-[2-(4-morpholinyl)ethoxy]phenyl}acetamide], 70%.
As for `CC#CCOc1ccc(S(=O)(=O)N(CC)C(C(=O)NO)C(C)C)cc1` (stereo not shown) [Example 108, 2-[(4-But-2-ynyloxy-benzenesulfonyl)-ethyl-amino]-N-hydroxy-3-methyl-butyramide], under setting [1], the inhibition at 3 µM turned out to be 76%.
In the case of `CC#CCOc1ccc(S(=O)(=O)NC(C(=O)NO)c2ccc(OCCN(C)C(=O)OC(C)(C)C)cc2)cc1` (stereo not shown) [Example 203, tert-Butyl 4-(2-{4-[1-({[4-{2-butynyloxy)phenyl]sulfonyl}amino)-2-(hydroxyamino)-2-oxoethyl)phenoxy]ethyl)-(methyl)carbamate], the inhibition at 3 µM under setting [1] was determined as 73%.
`CC#CCOc1ccc(S(=O)(=O)N(C)C(C(=O)NO)c2ccc(OCCCNC(=O)Nc3ccccc3)cc2)cc1` (stereo not shown) [Example 198, 2-(4-{3-[(Anilinocarbonyl)amino]propoxy}phenyl)-2-[{[4-(2-butynyloxy)phenyl]sulfonyl}(methyl)amino]-N-hydroxyacetamide]: the inhibition at 3 µM under setting [1] was 92%.
Take `CC#CCOc1ccc(S(=O)(=O)N2C[C@H](CC(=O)NCCN(C)C)SC(C)(C)[C@@H]2C(=O)NO)cc1` [Example 284, (3S,6S)-4-{[4-(2-Butynyloxy)phenyl]sulfonyl}-6-(2-{[2-(dimethylamino)ethyl]amino}-2-oxoethyl)-N-hydroxy-2,2-dimethyl-3-thiomorpholinecarboxamide]: under setting [2], the inhibition at 3 µM stood at 88%.
Take `CC#CCOc1ccc(S(=O)(=O)N(CCCCN(CC)CC)C(C(=O)NO)C(C)C)cc1` (stereo not shown) [Example 121, 2-{{[4-(2-Butynyloxy)phenyl]sulfonyl}[4-(diethylamino)butyl]amino}-N-hydroxy-3-methylbutanamide]: the inhibition at 3 µM under setting [1] was determined as 65%.
Consider `CC#CCOc1ccc(S(=O)(=O)N(Cc2cccnc2)C(C(=O)NO)C(C)C)cc1` (stereo not shown) [Example 114, 2-[(4-But-2-ynyloxy-benzenesulfonyl)-pyridin-3-ylmethyl-amino]-N-hydroxy-3-methyl-butyramide], for which, under setting [1], the inhibition at 3 µM was determined as 75%.
Regarding `CC#CCOc1ccc(S(=O)(=O)N(CCN2CCOCC2)C(C(=O)NO)C(C)C)cc1` (stereo not shown) [Example 123, 2-[[[4-(2-Butynyloxy)phenyl]sulfonyl][2-(4-morpholinyl)ethyl]amino]-N-hydroxy-3-methylbutanamide], the inhibition at 3 µM under setting [1] was found to be 35%.
Take `C#CCOc1ccc(C(NS(=O)(=O)c2ccc(OCC#CC)cc2)C(=O)NO)cc1` (stereo not shown) [Example 177, 2-({[4-(2-Butynyloxy)phenyl]sulfonyl}amino)-N-hydroxy-2-[4-(2-propynyloxy)phenyl]acetamide]: the inhibition at 3 µM under setting [1] came to 64%.
Take `CC#CCOc1ccc(S(=O)(=O)N2CCNCCC2C(=O)NO)cc1` (stereo not shown) [Example 292, 4-{[4-(2-Butynyloxy)phenyl]sulfonyl}-N-hydroxy-1,4-diazepane-5-carboxamide]: the inhibition at 3 µM under setting [2] came to 83%.
For `CC#CCOc1ccc(S(=O)(=O)N2CCCSC(C)(C)[C@@H]2C(=O)NO)cc1` [Example 173], the inhibition at 3 µM under setting [2] came to 80%.
On to `CC#CCOc1ccc(S(=O)(=O)N(C)[C@@H](C(=O)NO)[C@H]2CC[C@H](O)CC2)cc1` [Example 130], for which the inhibition at 3 µM under setting [1] worked out at 92%.
Turning to `CC#CCOc1ccc(S(=O)(=O)N[C@@H](C(=O)NO)c2ccc(OCCNC(=O)OC(C)(C)C)cc2)cc1` [Example 199, tert-Butyl 2-{4-[(1R)-1-({[4-(2-butynyloxy)phenyl]sulfonyl}amino)-2-(hydroxyamino)-2-oxoethyl]phenoxy}ethylcarbamate], the inhibition at 3 µM under setting [1] amounted to 84%.
Regarding `CC#CCOc1ccc(S(=O)(=O)N(C)C(C(=O)NO)c2ccc(OCCCNC(C)=O)cc2)cc1` (stereo not shown) [Example 194, 2-{4-[3-(Acetylamino)propoxy]phenyl}-2-[{[4-(2-butynyloxy)phenyl]sulfonyl}(methyl)amino]-N-hydroxyacetamide], under setting [1], the inhibition at 3 µM was 94%.
Still for that read-out and setting: the same measure for `CC#CCOc1ccc(S(=O)(=O)N2Cc3ccccc3CC2C(=O)NO)cc1` (stereo not shown) [Example 41, 2-(4-But-2-ynyloxy-benzenesulfonyl)-1,2,3,4-tetrahydro-isoquinoline-3-carboxylic acid hydroxyamide]: 93%.

In general, inhibition refers to the relative decrease from the control value, in per cent.
